# Measurements: patent US20220073532A1, “INHIBITORS OF CGAS ACTIVITY AS THERAPEUTIC AGENTS” (BELLBROOK LABS, LLC, priority 2019, published 2022)
# Tests used:
# [1] = test system: Kinase, PDE, GTPase, ENPP1 (Abl1, PKA, TBK1, Rac1, PDE4A, ENPP1); assay: Selectivity panel of nucleotide-utilizing enzymes; format: biochemical
# Method: Selectivity profiling: A panel of nucleotide-utilizing enzymes that included kinases (Abl1, PKA, TBK1—which transduces cGAS/STING signals, see FIG. 5A) a GTPase (Rac1), a phosphodiesterase (PDE4A), and ENPP1, a nucleotidase that degrades cGAMP, was used preliminarily. cGAS assays were used to perform dose response measurements with cGAS inhibitors. In addition to these enzymes, inhibitors are tested with three other members of the oligoadenylate synthases (OAS), nucleic acid sensors that activate innate immunity via production of short, 2′-5′ oligoadenylate second messengers. Methods for expression and purification of the human and/or porcine enzymes in E. coli or baculovirus-infected insect cells have been developed as well as a simple, absorbance-based assay using commercially available pyrophosphate kit. In addition, an FP-based assay (competitive displacement of a fluor-cGAMP tracer) is developed to test compounds as ligands for STING (which could be one explanation for the partial activity of Compound 15 in cells stimulated with cGAMP) (FIG. 5).
# [2] = biological target: cGAS (Homo sapiens, UniProt Q8N884); assay: SPR / biophysical binding to cGAS; details: enzymatic analysis and SPR, TSA
# Chain of cGAS (Q8N884 whole entry): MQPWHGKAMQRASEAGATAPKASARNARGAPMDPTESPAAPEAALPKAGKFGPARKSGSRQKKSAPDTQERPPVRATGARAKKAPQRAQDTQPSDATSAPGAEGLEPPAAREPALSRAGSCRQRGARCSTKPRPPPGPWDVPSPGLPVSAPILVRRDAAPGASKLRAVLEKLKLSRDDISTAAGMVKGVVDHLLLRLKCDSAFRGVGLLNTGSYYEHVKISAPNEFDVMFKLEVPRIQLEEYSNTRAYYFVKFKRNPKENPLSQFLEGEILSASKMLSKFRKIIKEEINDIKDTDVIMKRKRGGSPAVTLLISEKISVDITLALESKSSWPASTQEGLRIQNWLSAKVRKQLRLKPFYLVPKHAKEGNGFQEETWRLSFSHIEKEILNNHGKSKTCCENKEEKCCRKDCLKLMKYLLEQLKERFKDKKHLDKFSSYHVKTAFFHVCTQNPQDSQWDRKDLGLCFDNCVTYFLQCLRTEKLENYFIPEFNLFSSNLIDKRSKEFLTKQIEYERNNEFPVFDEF
# Excerpt: Following confirmation of hits at three concentrations and removal of compounds with visually evident reactivity or metabolic liabilities, non-stoichiometric inhibitors, aggregators, DNA intercalators and redox-active compounds were triaged (FIG. 2E) using established assays. […] Initial SAR based on more than 100 commercially available analogs provided additional confidence that the compounds were bonafide inhibitors, and informed potential scaffold hops and toleration for modifications.
# A highly efficient platform for preclinical drug discovery (FIG. 3) was assembled, providing for development of cGAS inhibitors, which is improved by the addition of a powerful computational modeling method and in vivo PK studies (FIG. 3). […]
# Biochemical and biophysical analysis: Potency and MOA studies, including Mn^2+ sensitivity, are performed using the cGAS enzymatic assay. […] Competition with ATP and GTP is assessed by comparing basal IC50 values to those in the presence of saturating ATP or GTP, and subsequently confirmed by measuring velocity vs. substrate at varying ATP or GTP levels. […]
# [3] = test system: MDCK-MDR (Madin-Darby Canine Kidney cells-Multi Drug Resistance pump); assay: MDCK-MDR permeability; format: in vitro ADME
# Method: (§1) ADME/PK: Compounds are tested in Caco-2 and MDR1-MDCK permeability assays to provide a measure of intestinal absorption, blood-brain-permeability and efflux by P-glycoprotein (P-gp), a frequent obstacle to effective CNS delivery. CNS drugs are associated with high passive membrane permeability (Papp>1×10^−6 cm/sec) and have low efflux ratios (Papp(B-A)/Papp(A-B)<2.5). Metabolic stability is tested using mouse and human liver microsomes incubated with NADPH for CYP-dependent metabolism and with UDPGA for glucuronidation. Compounds are tested for pharmacokinetics and brain penetration in mice using oral, intravenous and intraperitoneal administration.
# [4] = test system: MDR1 (P-glycoprotein); assay: MDCK-MDR permeability; format: in vitro ADME, canine; details: dog, MDCK-MDR1
# Method: as §1
# [5] = biological target: Mouse cGAS (Mus musculus, UniProt Q8C6L5); assay: cGAS enzymatic assay with mouse cGAS; format: biochemical
# Chain of Mouse cGAS (Q8C6L5 whole entry): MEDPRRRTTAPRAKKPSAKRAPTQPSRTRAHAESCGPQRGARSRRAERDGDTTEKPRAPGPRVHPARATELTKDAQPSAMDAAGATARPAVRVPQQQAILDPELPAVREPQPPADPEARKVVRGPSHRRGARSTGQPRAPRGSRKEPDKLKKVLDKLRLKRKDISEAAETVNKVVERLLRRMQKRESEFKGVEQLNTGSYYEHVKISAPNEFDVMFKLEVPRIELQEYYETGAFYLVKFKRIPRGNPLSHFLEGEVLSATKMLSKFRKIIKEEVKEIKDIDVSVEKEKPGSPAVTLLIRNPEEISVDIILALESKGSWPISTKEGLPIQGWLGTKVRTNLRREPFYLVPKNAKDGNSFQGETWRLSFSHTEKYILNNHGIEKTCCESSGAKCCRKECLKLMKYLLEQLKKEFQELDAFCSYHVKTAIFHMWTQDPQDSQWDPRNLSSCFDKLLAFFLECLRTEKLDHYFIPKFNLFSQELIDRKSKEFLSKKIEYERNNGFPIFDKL
# Method: Biochemical and biophysical analysis: Potency and MOA studies, including Mn^2+ sensitivity, are performed using the cGAS enzymatic assay. Dose response experiments are used to determine IC50 values under basal conditions (5 mM MgCl2, 100 μM ATP/GTP), and with the addition of physiological levels of Mn (0.2 mM) using human and mouse cGAS. Ligand optimization is driven by potency with the human enzyme; potency with mouse cGAS informs selection of an appropriate disease model for efficacy studies. Competition with ATP and GTP is assessed by comparing basal IC50 values to those in the presence of saturating ATP or GTP, and subsequently confirmed by measuring velocity vs. substrate at varying ATP or GTP levels. Inhibitor residence times (1/koff) are used as a key parameter for prioritizing compounds and driving SAR, because a longer residence time often results from an allosteric mechanism, and can also correlate with improved cellular activity. The cGAS enzymatic assay is used with the jump dilution method to measure residence times (inhibitor dissociation rates), as described for kinases using the very similar ADP assay. Biophysical methods, including SPR and TSA, are used as orthologous methods for residence time measurements and kd estimates.
structure (smiles),measurement,setting,value
"Cc1nc(N2CCC[C@H]2C(=O)O)c2oc3ccccc3c2n1 [Compound 15, (2-methylbenzofuro[3,2-d]pyrimidin-4-yl)-L-proline]","Off-Target Activity (Kinase, PDE, GTPase, ENPP1)",[1],None
same,inhibitory activity with a panel of nucleotide-utilizing enzymes,[1]; at 200 μM,lack of inhibitory activity
same,binding stoichiometry to cGAS,[2],Stoichiometric binding (1:1)
same,MDR-1-mediated export,[3],no indication of MDR-1-mediated export
same,efflux ratio,[4],0.4
same,Papp A→B,[4]; A→B,9.8 ×10⁻⁶ cm/s
same,IC50,[5],> 150 µM
